The record followed here is ChEMBL document CHEMBL1764972, “Phomalevones A-C: dimeric and pseudodimeric polyketides from a fungicolous Hawaiian isolate of Phoma sp. (Cucurbitariaceae)” (J Nat Prod, 2011).

The subject of experiment [1] is Staphylococcus aureus. Kind of experiment: Antibacterial activity against Staphylococcus aureus ATCC 29213 at 100 ug/disk by agar disk diffusion assay. The note with it: read-out: IZ. The format is functional.
The subject of experiment [2] is Bacillus subtilis. Kind of experiment: Antibacterial activity against Bacillus subtilis ATCC 6051 at 100 ug/disk by agar disk diffusion assay. In kind it is functional. The following applies: read-out: IZ.
A further experiment relates to Escherichia coli. The experiment is described as follows: Antibacterial activity against Escherichia coli ATCC 25922 at 100 ug/disk by agar disk diffusion assay. The note with it: read-out: IZ. The format is functional.
A further experiment has as its system Candida albicans. Kind of experiment: Antimicrobial activity against Candida albicans ATCC 14053 at 100 ug/disk by agar disk diffusion assay. The following applies: read-out: IZ. In kind it is functional.
For experiment [3], the system named is Bacillus subtilis. Kind of experiment: Antibacterial activity against Bacillus subtilis ATCC 6051 at 25 ug/disk by agar disk diffusion assay. The format is functional, organism-based.
The test system of experiment [4] is Staphylococcus aureus. Kind of experiment: Antibacterial activity against Staphylococcus aureus ATCC 29213 at 25 ug/disk by agar disk diffusion assay. In kind it is functional, organism-based.
Experiment [5] concerns Fusarium verticillioides. Kind of experiment: Antifungal activity against Gibberella moniliformis NRRL 25457 by agar disk diffusion assay. In kind it is functional, organism-based.
Experiment [6] relates to Aspergillus flavus. Kind of experiment: Antifungal activity against Aspergillus flavus NRRL 6541 by agar disk diffusion assay. The format is functional, organism-based.
Experiment [7] concerns Aspergillus flavus. Kind of experiment: Antifungal activity against Aspergillus flavus NRRL 6541 at 200 ug/disk by agar disk diffusion assay. In kind it is functional. The following applies: read-out: IZ.
In experiment [8] the test system is Fusarium verticillioides. The experiment is described as follows: Antifungal activity against Gibberella moniliformis NRRL 25457 at 200 ug/disk by agar disk diffusion assay. The format is functional. The note with it: read-out: IZ.
Experiment [9] deals with Aspergillus flavus. The experiment is described as follows: Antifungal activity against Aspergillus flavus NRRL 6541 up to 25 ug/ml by agar disk diffusion assay. The format is functional, organism-based.

Converted amounts (≈) assume the structure as drawn. The source made the active and inactive calls. No cut-off for these calls is given here.

For the compound `Cc1cc(O)c(C(=O)c2c(O)ccc(O)c2C)c(O)c1-c1c(C)cc(O)c(C(=O)c2c(O)ccc(O)c2C)c1O` [PHOMALEVONE B], the zone of inhibition at 100 µg/disc is 26 mm in the experiment on Staphylococcus aureus [1], 38 mm in the experiment with Bacillus subtilis [2], 18 mm in the experiment with Escherichia coli and 18 mm in the experiment with Candida albicans.

In the case of GENTAMICIN SULFATE, the inhibition zone (IZ) in the experiment on Bacillus subtilis [3] and in the experiment on Staphylococcus aureus [4] was 20 mm throughout.

NYSTATIN: the MIC against Fusarium verticillioides [5] and with Aspergillus flavus [6] was 10 µg/mL each time.

Consider `Cc1cc2c(c(O)c1-c1c(C)cc3c(c1O)C(=O)C1=C(O)C=C[C@H](O)[C@]1(C)O3)C(=O)C1=C(O)C=C[C@H](O)[C@]1(C)O2` [PHOMALEVONE A], for which the results for the zone of inhibition at 100 µg/disc with Staphylococcus aureus [1] and with Bacillus subtilis [2] were 23 mm and 36 mm, respectively.

Regarding `Cc1cc2c(c(O)c1-c1c(C)cc3c(c1O)C(=O)C1=C(O)C=C[C@H](O)[C@]1(C)O3)C(=O)C1=C(O)C=CC(=O)[C@]1(C)O2` [PHOMALEVONE C], the zone of inhibition at 200 µg/disc with Aspergillus flavus [7] and in the experiment with Fusarium verticillioides [8] was 10 mm throughout. For the same compound, the MIC against Fusarium verticillioides [5] worked out at 10 µg/mL (≈ 18.4 µM). The zone of inhibition at 100 µg/disc is 22 mm in the experiment on Staphylococcus aureus [1] and 34 mm in the experiment on Bacillus subtilis [2]. Further, the result in the experiment with Aspergillus flavus [9] was inactive. Further, inhibition with Aspergillus flavus [6] was half-maximal at 4 µg/mL (≈ 7.35 µM) (IC50).
